Data set [1] deals with calcium flux (release of Ca2+) in SK-N-SH nerve cells. As to the kind of experiment: Inhibition of calcium flux (IC50Ca2+) on nerve cells SK-N-SH. The note with it: Homo sapiens, 50% inhibitory concentration for the release of Ca2+. The class given is cell-based. The text has this:
(§1) In order for a substance to be recognized as a calcium-channel inhibitor, it must be able to reduce the intracellular calcium concentration or reduce the binding of calcium to intracellular proteins such as, for example, calmodulin, as is described especially by Galizzi, J. P. et al., J. Biol. Chem. 1987, 262 p. 6947; by Y. Okamiya et al., Eur. J. Pharmacol. 1991, 205, p. 49; by J. A. Wagner et al., J. Neurosci. 1988, 8, p. 3354; by H. R. Lee et al., Life Sci. 1984, 35, p. 721; by Schoemaker H. and Lauger S. Eur. J. Pharmacol. 1985, 111, p. 273 or I. J. Reynolds et al., J. Pharmacol. Exp. Ther. 1986, 237, p. 731.
(§2) According to the protocol indicated in these documents, the Assignee determined the IC50Ca2+ of inhibition of calcium flux for compounds (Ia), (IIa) to (IId), (IIIa) and (IIIb), in comparison with verapamil. IC50Ca2+ represents the 50% inhibitory concentration for the release of Ca^2+.
A general note: Calcium flux is commonly read through the fluorescence of an indicator in the cells.

Data set [2] relates to calcium flux (release of Ca2+) in HDFa cells obtained from skin fibroblasts. Briefly: Inhibition of calcium flux (IC50Ca2+) on cells obtained from skin fibroblasts HDFa. The data set is classed as cell-based. The note with it: 50% inhibitory concentration for the release of Ca2+.
Description: as §1, §2

For the next data set, the system named is fibroblasts. As to the kind of experiment: Cytotoxicity check in the dermal equivalent test. The data set is classed as cell-based, human.
Data set [3] relates to normal human fibroblasts inserted into a fibrillar collagen gel (dermal equivalent). As to the kind of experiment: Contraction of dermal equivalents (fibroblasts in fibrillar collagen gel), dermo-decontracting effect. The class given is cell-based. The text has this:
This model thus makes it possible to evaluate the relaxing potential of compounds by measuring the delay in contraction of the treated dermal equivalents relative to the control dermal equivalents prepared under the same conditions. Verapamil is used as reference molecule.
Dermal fibroblasts are isolated from human skin explants and cultured in MEM medium+additives (10% foetal calf serum, 1% glutamine, 1% non-essential amino acids, 1% sodium pyruvate, 1% Fungizone and 1% penicillin/streptomycin). The collagen used is obtained from a commercial solution. It is extracted from rat tails and stored in acidic medium at +4° C. It is dialysed beforehand against successive baths of acetic acid of decreasing concentration.
The mixture is homogenized cautiously, so as to obtain a distribution of the cells in the collagen matrix that is as uniform as possible. It is then distributed in each well of a 12-well culture dish at a rate of 2 ml/well. The final cell concentration is 3×10^4 cells/dermal equivalent with a final collagen concentration of 1 mg/ml.
The culture dishes are incubated at 37° C./5% CO2 so as to obtain polymerization and gelation of the collagen. The dermal equivalents thus treated adhere to the dishes and the cells are subjected to mechanical stresses that potentiate their contractile properties. The cells thus cultured in 3D end up under conditions close to those of the dermis. After culturing for three days under these “attached” conditions, the dermal equivalents are detached from their support by gentle agitation. […]
To do this, a digital image is acquired for each treated or untreated dermal equivalent using a camera (CCD camera—Iris Sony DXC -107P) and on each of them, the small (D1) and large (D2) diameters of the dermal equivalent are measured by computer. The surface area is calculated according to the formula for calculating an ellipse: S=(D1×D2×π)/4. […] The percentage of contraction is calculated according to the formula below, in which Si represents the surface area of the dermal equivalent at Ti: […]

Molecules are shown by their SMILES.

Here are results for 9 compounds from patent US20040105875A1, “Composition containing a secondary or tertiary carbonyl amine, method of use thereof, compounds” (L'OREAL, priority 2002, published 2004).

In the case of `COc1cc(CNCCC(=O)c2ccccc2)ccc1O` [Compound (IIIa)], the IC50 (commonly the concentration that inhibits the measured activity by half) in data set [1] worked out at 41 µM; in data set [2], 30 µM.
Consider `COc1ccc(CCN(C)CCC(=O)c2ccccc2)cc1OC` [Compound (IIIb)], for which the IC50 in data set [1] was 14 µM; in data set [2] it was 6 µM.
For the compound `CCCCCC(=O)CCN(CC)CCC(=O)c1ccccc1` [Compound (IIa)], the IC50 in data set [1] was 29 µM; in data set [2] it was 41 µM.
Turning to `CCCCCCCN(C)CCC(=O)c1ccccc1` [Compound (IIb)], the IC50 in data set [1] was 26 µM; in data set [2], 31 µM.
Taken in the same sequence, the figures for `CCCCCCCNCCC(=O)c1ccccc1` [Compound (IIc)] were 36 µM and 46 µM.
`CCCCCC(O)(CCCCC)CCN(CC)CCC(=O)c1ccccc1` [Compound (IId), 3-[ethyl(3-hydroxy-3-pentyloctyl)amino]-1-phenylpropan-1-one]: the IC50 is 3 µM in data set [1] and 4 µM in data set [2].
On to `CN(CCC(=O)c1ccccc1)CCC(=O)c1ccccc1.Cl` [Compound (Ia)], for which the “cytotoxicity as cause of the decontracting effect” value with fibroblasts is reported as “did not result from any cytotoxicity”. Further, the IC50 in data set [1] was 36 µM. Further, in data set [3] (tested at 1 μm, after 4 days of contact with the fibroblasts), the “difference in the degree of contraction compared with control dermal equivalents” value was determined as 25%.
`CCN(CCCc1ccccc1)CCCc1ccccc1` [alverine, reference compound]: the IC50 in data set [1] was 30 µM. In addition, the “activity in the dermal equivalent contraction test” value in data set [3] (tested under the same conditions) is “no activity”.
With `COc1ccc(CCN(C)CCCC(C#N)(c2ccc(OC)c(OC)c2)C(C)C)cc1OC` (stereo not drawn) [verapamil], the “difference in the degree of contraction compared with control dermal equivalents” value in data set [3] (tested at 10 μM, same conditions (4 days of contact)) came out at 32%.
